From patent US9005939B2, “Protoilludene synthase” (priority 2010, dated 2015)

Assays:
[1] = target: A. gallica protoilludene synthase (Armillaria gallica, UniProt P0DL13); type: biochemical
[2] = target: T1, Pro1 (A. gallica protoilludene synthase) expressed in Escherichia coli (Armillaria gallica, UniProt P0DL13); experiment: Sesquiterpene synthase activity of crude soluble protein extract of E. coli expressing Pro1 (radio-TLC); type: biochemical; conditions: same Pro1 lysate incubated with diterpene synthase substrate
T1 construct: A. gallica protoilludene synthase (clone Pro1); made in house; host or cells: E. coli BL21 (DE3) CodonPlus, vector pDEST14; crude soluble lysate
Protocol: Escherichia coli protein extracts were prepared by resolving the cell pellet from cultivation in the described extraction puffer and cells were lysed under constant cooling by two rounds of Microfluidizer treatment.
Part of the organic extract was then spotted onto silica-gel TLC plates and separated using 9:1 cyclohexane:ethyl acetate as the solvent, prior to analysis in a radio-TLC reader (Raytest, Straubenhardt). For the determination of KM values the reactions were stopped by quenching with 100 mM EDTA (final concentration) followed by extraction with n-pentane, purification by silica gel column chromatography and quantitation by liquid scintillation counting. All kinetic activity assays were performed in triplicate. Mass spectrometry analysis of solvent extracts was performed on a QP2010S quadrupole mass spectrometer (Shimadzu) equipped with an Rxi™-5 ms (0.25 mm ID, 30 m length) column (Restek) using the following temperature program: 80° C. for 20 min, followed by heating the column at an rate of 15° C./min to 300° C. with a final constant temperature of 300° C. for 4 min. Fragmentation was achieved by electric ionization at […].
Where cDNA sequencing identified potential terpene synthase clones, the corresponding pENTRY vectors were used in LR recombination reactions involving the pDEST14 destination vector. […]

Compound: [Cl][Mn][Cl] [MnCl2]
- fall of protoilludene synthase activity ([1]; 5 mM MgCl2 replaced with MnCl2, relative to highest activity with MgCl2): 75%

Compound: CCO [ethanol]
- effect on enzyme activity [1]: dramatic reduction in activity

Compound: CC(C)=CCC/C(C)=C/CC/C(C)=C/CC/C(C)=C/COP(=O)(O)OP(=O)(O)O [gernaylgeranyl diphosphate, geranylgeranyl diphosphate]
- substrate converted into less polar product [2]: < 1%
